Assay results published in PubChem BioAssay (NCI).
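Results reflect a 48-hour exposure of cells in 96-well plates to compound at five concentrations. TGI: total growth inhibition.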

Legend:
Assay in all cases: NCI anticancer screen, dose series, 48 h
SK-MEL-5 melanoma = test system: SK-MEL-5 melanoma
K-562 leukemia = test system: K-562 leukemia
NCI-H226 lung = test system: NCI-H226 lung
DU-145 prostate = test system: DU-145 prostate
SF-268 CNS = test system: SF-268 CNS
HCT-15 colon = test system: HCT-15 colon
COLO 205 colon = test system: COLO 205 colon
MALME-3M melanoma = test system: MALME-3M melanoma
SF-295 CNS = test system: SF-295 CNS
HL-60(TB) leukemia = test system: HL-60(TB) leukemia
HT29 colon = test system: HT29 colon
U251 CNS = test system: U251 CNS
M14 melanoma = test system: M14 melanoma
SR leukemia = test system: SR leukemia
SK-MEL-28 melanoma = test system: SK-MEL-28 melanoma
NCI/ADR-RES ovarian = test system: NCI/ADR-RES ovarian
MDA-N = test system: MDA-N
PC-3 prostate = test system: PC-3 prostate
T-47D breast = test system: T-47D breast

| SMILES | TGI (SK-MEL-5 melanoma) | TGI (K-562 leukemia) | TGI (NCI-H226 lung) | TGI (DU-145 prostate) | TGI (SF-268 CNS) | TGI (HCT-15 colon) | TGI (COLO 205 colon) | TGI (MALME-3M melanoma) | TGI (SF-295 CNS) | TGI (HL-60(TB) leukemia) | TGI (HT29 colon) | TGI (U251 CNS) | TGI (M14 melanoma) | TGI (SR leukemia) | TGI (SK-MEL-28 melanoma) | TGI (NCI/ADR-RES ovarian) | TGI (MDA-N) | TGI (PC-3 prostate) | TGI (T-47D breast) |
| --- | --- | --- | --- | --- | --- | --- | --- | --- | --- | --- | --- | --- | --- | --- | --- | --- | --- | --- | --- |
| C=C=C(Sc1ccccc1)C(C)(C)OC(C)=O | 29.3 µM | 52 µM | 45.4 µM | 90.2 µM | 27.7 µM | 46.9 µM | 32.5 µM | 35.3 µM | 33.6 µM | 81 µM | 37 µM | 31.6 µM | 32.4 µM | > 100 µM | 31.4 µM | – | – | – | – |
| CC(C)C1COC(c2cccc(C3=N[C@@H](C(C)C)CO3)n2)=N1 (stereo not given in full) | > 100 µM | > 100 µM | > 100 µM | – | > 100 µM | > 100 µM | > 100 µM | > 100 µM | > 100 µM | > 100 µM | > 100 µM | > 100 µM | > 100 µM | > 100 µM | > 100 µM | – | – | – | – |
| CCC(=O)N(O)C(C)(C)C | > 100 µM | > 100 µM | > 100 µM | – | > 100 µM | > 100 µM | > 100 µM | > 100 µM | > 100 µM | > 100 µM | > 100 µM | > 100 µM | > 100 µM | > 100 µM | > 100 µM | – | – | – | – |
| C=CCNC(=O)NCCCC(NC(C)=O)C(=O)NCc1ccccc1 (stereo not given) | > 100 µM | > 100 µM | > 100 µM | – | > 100 µM | > 100 µM | > 100 µM | > 100 µM | > 100 µM | > 100 µM | > 100 µM | > 100 µM | > 100 µM | – | > 100 µM | – | – | – | – |
| O=C1CC(C(=O)N2CCCCC2)n2c(=O)n(-c3ccccc3)c(=O)n2C1 (stereo not given) | > 100 µM | – | > 100 µM | > 100 µM | > 100 µM | > 100 µM | > 100 µM | > 100 µM | > 100 µM | – | > 100 µM | – | > 100 µM | – | – | > 100 µM | > 100 µM | > 100 µM | – |
| CC(=O)N1N(c2ccc([N+](=O)[O-])cc2)C(=O)C1(C)C | 30.8 µM | 60.5 µM | 37.6 µM | > 100 µM | 87.1 µM | 34.5 µM | 30.5 µM | 56 µM | > 100 µM | – | 44.8 µM | 52.8 µM | 23.7 µM | – | 37.4 µM | 89.9 µM | > 100 µM | 32 µM | > 100 µM |
| COc1ccc(-c2cc(=O)c3cc4c(cc3[nH]2)OCO4)cc1 | > 100 µM | > 100 µM | > 100 µM | – | > 100 µM | > 100 µM | > 100 µM | > 100 µM | > 100 µM | > 100 µM | > 100 µM | > 100 µM | > 100 µM | > 100 µM | > 100 µM | – | – | – | – |
| CC(C)(CO)NC(=O)Nc1c(C(F)(F)F)cc(-c2ccccc2)[nH]c1=O | > 100 µM | > 100 µM | > 100 µM | > 100 µM | > 100 µM | > 100 µM | > 100 µM | > 100 µM | > 100 µM | – | > 100 µM | > 100 µM | > 100 µM | – | > 100 µM | > 100 µM | > 100 µM | > 100 µM | > 100 µM |
| CCN(CC)CC(C(=O)Nc1c(C)cccc1C)/C(C)=N\NC(=O)c1ccncc1 (stereo not given) | > 100 µM | – | > 100 µM | – | > 100 µM | > 100 µM | > 100 µM | > 100 µM | > 100 µM | – | > 100 µM | > 100 µM | > 100 µM | > 100 µM | > 100 µM | – | – | – | – |
| CC1(C)OC(=O)C2(O1)C(=O)C1CCCCC12 (stereo not given) | > 100 µM | > 100 µM | > 100 µM | > 100 µM | > 100 µM | > 100 µM | > 100 µM | > 100 µM | > 100 µM | – | > 100 µM | > 100 µM | > 100 µM | – | > 100 µM | > 100 µM | > 100 µM | > 100 µM | > 100 µM |
| O=C(CNC(=O)OCc1ccccc1)NCCCCC(NC(=O)OCc1ccccc1)C(=O)NC(CCCCNC(=O)CNC(=O)OCc1ccccc1)C(=O)OCc1ccccc1 (stereo not given) | > 62.5 µM | > 62.5 µM | > 62.5 µM | > 62.5 µM | > 62.5 µM | > 62.5 µM | – | > 62.5 µM | – | > 62.5 µM | > 62.5 µM | > 62.5 µM | > 62.5 µM | > 62.5 µM | > 62.5 µM | – | – | > 62.5 µM | > 62.5 µM |
| O=c1oc(-c2ccccc2)c(-c2ccccc2)n1-c1ccc(Br)cc1 | > 100 µM | – | > 100 µM | 89.4 µM | > 100 µM | > 100 µM | > 100 µM | – | > 100 µM | > 100 µM | > 100 µM | > 100 µM | > 100 µM | – | > 100 µM | – | – | > 100 µM | > 100 µM |
